From PubChem BioAssay (NCI)
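Test compounds were applied to cells in 96-well plates for 48 hours at 5 doses. TGI: total growth inhibition.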

Columns and labels:
Experiment in all cases: NCI anticancer screen, dose series, 48 h
UACC-62 melanoma = tested on: UACC-62 melanoma
T-47D breast = tested on: T-47D breast
OVCAR-8 ovarian = tested on: OVCAR-8 ovarian
HOP-62 NSCLC = tested on: HOP-62 NSCLC
MDA-MB-435 = tested on: MDA-MB-435
BT-549 breast = tested on: BT-549 breast
UACC-257 melanoma = tested on: UACC-257 melanoma
EKVX NSCLC = tested on: EKVX NSCLC
A549 NSCLC = tested on: A549 NSCLC
HT29 colon = tested on: HT29 colon
CCRF-CEM leukemia = tested on: CCRF-CEM leukemia
786-0 renal = tested on: 786-0 renal
CAKI-1 renal = tested on: CAKI-1 renal
TK-10 renal = tested on: TK-10 renal
SF-539 CNS = tested on: SF-539 CNS
HCT-116 colon = tested on: HCT-116 colon
SF-268 CNS = tested on: SF-268 CNS
NCI-H226 lung = tested on: NCI-H226 lung
SK-MEL-2 melanoma = tested on: SK-MEL-2 melanoma
NCI-H460 lung = tested on: NCI-H460 lung
COLO 205 colon = tested on: COLO 205 colon
SK-MEL-5 melanoma = tested on: SK-MEL-5 melanoma
KM12 colon = tested on: KM12 colon
U251 CNS = tested on: U251 CNS
SN12C renal = tested on: SN12C renal
SK-OV-3 ovarian = tested on: SK-OV-3 ovarian
NCI-H522 lung = tested on: NCI-H522 lung
MALME-3M melanoma = tested on: MALME-3M melanoma
NCI-H23 lung = tested on: NCI-H23 lung
UO-31 renal = tested on: UO-31 renal
NCI/ADR-RES ovarian = tested on: NCI/ADR-RES ovarian
LOX IMVI melanoma = tested on: LOX IMVI melanoma
RPMI-8226 leukemia = tested on: RPMI-8226 leukemia
SK-MEL-28 melanoma = tested on: SK-MEL-28 melanoma
MDA-MB-231 breast = tested on: MDA-MB-231 breast
SNB-75 CNS = tested on: SNB-75 CNS
ACHN renal = tested on: ACHN renal
IGROV1 ovarian = tested on: IGROV1 ovarian
SF-295 CNS = tested on: SF-295 CNS
HOP-92 NSCLC = tested on: HOP-92 NSCLC
MCF7 breast = tested on: MCF7 breast
PC-3 prostate = tested on: PC-3 prostate
MDA-N = tested on: MDA-N
OVCAR-5 ovarian = tested on: OVCAR-5 ovarian
SR leukemia = tested on: SR leukemia
OVCAR-3 ovarian = tested on: OVCAR-3 ovarian
HCC-2998 colon = tested on: HCC-2998 colon
A498 renal = tested on: A498 renal
MOLT-4 leukemia = tested on: MOLT-4 leukemia
K-562 leukemia = tested on: K-562 leukemia
M14 melanoma = tested on: M14 melanoma
HCT-15 colon = tested on: HCT-15 colon
DU-145 prostate = tested on: DU-145 prostate
RXF 393 renal = tested on: RXF 393 renal
OVCAR-4 ovarian = tested on: OVCAR-4 ovarian
SNB-19 CNS = tested on: SNB-19 CNS
SW-620 colon = tested on: SW-620 colon

## O=c1[nH]c2ccc(C(F)(F)F)cc2nc1C(F)(F)F
UACC-62 melanoma
  TGI: > 100 µM
T-47D breast
  TGI: 45.9 µM
OVCAR-8 ovarian
  TGI: 77 µM
HOP-62 NSCLC
  TGI: 55.5 µM
MDA-MB-435
  TGI: 78.8 µM
BT-549 breast
  TGI: 89.8 µM
UACC-257 melanoma
  TGI: 64.4 µM
EKVX NSCLC
  TGI: > 100 µM
A549 NSCLC
  TGI: > 100 µM
HT29 colon
  TGI: > 100 µM
CCRF-CEM leukemia
  TGI: 42.7 µM
786-0 renal
  TGI: > 100 µM
CAKI-1 renal
  TGI: 82.1 µM
TK-10 renal
  TGI: > 100 µM
SF-539 CNS
  TGI: 64.2 µM
HCT-116 colon
  TGI: 60.7 µM
SF-268 CNS
  TGI: > 100 µM
NCI-H226 lung
  TGI: 89 µM
SK-MEL-2 melanoma
  TGI: 43.1 µM
NCI-H460 lung
  TGI: > 100 µM
COLO 205 colon
  TGI: 39.8 µM
SK-MEL-5 melanoma
  TGI: 35.5 µM
KM12 colon
  TGI: 57.7 µM
U251 CNS
  TGI: > 100 µM
SN12C renal
  TGI: 87.6 µM
SK-OV-3 ovarian
  TGI: 85.7 µM
NCI-H522 lung
  TGI: 47.6 µM
MALME-3M melanoma
  TGI: 74.2 µM
NCI-H23 lung
  TGI: 46.9 µM
UO-31 renal
  TGI: 75.6 µM
NCI/ADR-RES ovarian
  TGI: 70.7 µM
LOX IMVI melanoma
  TGI: 60.8 µM
RPMI-8226 leukemia
  TGI: > 100 µM
SK-MEL-28 melanoma
  TGI: > 100 µM
MDA-MB-231 breast
  TGI: 96.5 µM
SNB-75 CNS
  TGI: 48 µM
ACHN renal
  TGI: > 100 µM
IGROV1 ovarian
  TGI: 95.3 µM
SF-295 CNS
  TGI: > 100 µM
HOP-92 NSCLC
  TGI: 30.2 µM
MCF7 breast
  TGI: 80.3 µM
PC-3 prostate
  TGI: 62.7 µM
MDA-N
  TGI: > 100 µM
OVCAR-5 ovarian
  TGI: > 100 µM
SR leukemia
  TGI: > 100 µM
OVCAR-3 ovarian
  TGI: 41.8 µM
HCC-2998 colon
  TGI: > 100 µM
A498 renal
  TGI: 87.5 µM
MOLT-4 leukemia
  TGI: 63.8 µM
K-562 leukemia
  TGI: > 100 µM
M14 melanoma
  TGI: > 100 µM
HCT-15 colon
  TGI: > 100 µM
DU-145 prostate
  TGI: > 100 µM
RXF 393 renal
  TGI: 36.3 µM
OVCAR-4 ovarian
  TGI: > 100 µM
SNB-19 CNS
  TGI: > 100 µM

## Cn1c2ccccc2c2c3c(c4c5ccccc5n(C)c4c21)C(=O)N(c1ccccc1)C3=O
UACC-62 melanoma
  TGI: > 100 µM
T-47D breast
  TGI: > 100 µM
OVCAR-8 ovarian
  TGI: > 100 µM
HOP-62 NSCLC
  TGI: > 100 µM
MDA-MB-435
  TGI: > 100 µM
BT-549 breast
  TGI: > 100 µM
UACC-257 melanoma
  TGI: > 100 µM
EKVX NSCLC
  TGI: > 100 µM
A549 NSCLC
  TGI: > 100 µM
HT29 colon
  TGI: > 100 µM
CCRF-CEM leukemia
  TGI: > 100 µM
786-0 renal
  TGI: > 100 µM
CAKI-1 renal
  TGI: > 100 µM
TK-10 renal
  TGI: > 100 µM
SF-539 CNS
  TGI: > 100 µM
SW-620 colon
  TGI: > 100 µM
HCT-116 colon
  TGI: > 100 µM
NCI-H226 lung
  TGI: > 100 µM
SK-MEL-2 melanoma
  TGI: > 100 µM
NCI-H460 lung
  TGI: > 100 µM
COLO 205 colon
  TGI: > 100 µM
SK-MEL-5 melanoma
  TGI: > 100 µM
KM12 colon
  TGI: > 100 µM
U251 CNS
  TGI: > 100 µM
SN12C renal
  TGI: > 100 µM
SK-OV-3 ovarian
  TGI: > 100 µM
NCI-H522 lung
  TGI: > 100 µM
MALME-3M melanoma
  TGI: > 100 µM
NCI-H23 lung
  TGI: > 100 µM
UO-31 renal
  TGI: > 100 µM
NCI/ADR-RES ovarian
  TGI: > 100 µM
LOX IMVI melanoma
  TGI: > 100 µM
RPMI-8226 leukemia
  TGI: > 100 µM
SK-MEL-28 melanoma
  TGI: > 100 µM
MDA-MB-231 breast
  TGI: > 100 µM
SNB-75 CNS
  TGI: > 100 µM
ACHN renal
  TGI: > 100 µM
IGROV1 ovarian
  TGI: > 100 µM
SF-295 CNS
  TGI: > 100 µM
HOP-92 NSCLC
  TGI: > 100 µM
MCF7 breast
  TGI: > 100 µM
PC-3 prostate
  TGI: > 100 µM
MDA-N
  TGI: > 100 µM
OVCAR-5 ovarian
  TGI: > 100 µM
SR leukemia
  TGI: > 100 µM
OVCAR-3 ovarian
  TGI: > 100 µM
HCC-2998 colon
  TGI: > 100 µM
A498 renal
  TGI: > 100 µM
MOLT-4 leukemia
  TGI: > 100 µM
K-562 leukemia
  TGI: > 100 µM
M14 melanoma
  TGI: > 100 µM
HCT-15 colon
  TGI: > 100 µM
DU-145 prostate
  TGI: > 100 µM
OVCAR-4 ovarian
  TGI: > 100 µM
SNB-19 CNS
  TGI: > 100 µM
